Results reported in article PMC6934184, “Selective DNA-PKcs inhibition extends the therapeutic index of localized radiotherapy and chemotherapy” (The Journal of Clinical Investigation, 2019).

Molecular target: T1, LRRK2 (Homo sapiens, UniProt Q5S007)
T1 construct: purchased Thermo Fisher Scientific (Life Technologies) SelectScreen
Experiment: SelectScreen Adapta
Type: biochemical
In short: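 NU5455 was profiled across the SelectScreen Broad panel of kinase activity and binding assays. Z'LYTE reactions such as CSF1R ran at apparent Km ATP, while the Adapta CAMK1 assay used ATP listed as 10. Values are given as percent.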

T1 sequence (Q5S007 whole entry): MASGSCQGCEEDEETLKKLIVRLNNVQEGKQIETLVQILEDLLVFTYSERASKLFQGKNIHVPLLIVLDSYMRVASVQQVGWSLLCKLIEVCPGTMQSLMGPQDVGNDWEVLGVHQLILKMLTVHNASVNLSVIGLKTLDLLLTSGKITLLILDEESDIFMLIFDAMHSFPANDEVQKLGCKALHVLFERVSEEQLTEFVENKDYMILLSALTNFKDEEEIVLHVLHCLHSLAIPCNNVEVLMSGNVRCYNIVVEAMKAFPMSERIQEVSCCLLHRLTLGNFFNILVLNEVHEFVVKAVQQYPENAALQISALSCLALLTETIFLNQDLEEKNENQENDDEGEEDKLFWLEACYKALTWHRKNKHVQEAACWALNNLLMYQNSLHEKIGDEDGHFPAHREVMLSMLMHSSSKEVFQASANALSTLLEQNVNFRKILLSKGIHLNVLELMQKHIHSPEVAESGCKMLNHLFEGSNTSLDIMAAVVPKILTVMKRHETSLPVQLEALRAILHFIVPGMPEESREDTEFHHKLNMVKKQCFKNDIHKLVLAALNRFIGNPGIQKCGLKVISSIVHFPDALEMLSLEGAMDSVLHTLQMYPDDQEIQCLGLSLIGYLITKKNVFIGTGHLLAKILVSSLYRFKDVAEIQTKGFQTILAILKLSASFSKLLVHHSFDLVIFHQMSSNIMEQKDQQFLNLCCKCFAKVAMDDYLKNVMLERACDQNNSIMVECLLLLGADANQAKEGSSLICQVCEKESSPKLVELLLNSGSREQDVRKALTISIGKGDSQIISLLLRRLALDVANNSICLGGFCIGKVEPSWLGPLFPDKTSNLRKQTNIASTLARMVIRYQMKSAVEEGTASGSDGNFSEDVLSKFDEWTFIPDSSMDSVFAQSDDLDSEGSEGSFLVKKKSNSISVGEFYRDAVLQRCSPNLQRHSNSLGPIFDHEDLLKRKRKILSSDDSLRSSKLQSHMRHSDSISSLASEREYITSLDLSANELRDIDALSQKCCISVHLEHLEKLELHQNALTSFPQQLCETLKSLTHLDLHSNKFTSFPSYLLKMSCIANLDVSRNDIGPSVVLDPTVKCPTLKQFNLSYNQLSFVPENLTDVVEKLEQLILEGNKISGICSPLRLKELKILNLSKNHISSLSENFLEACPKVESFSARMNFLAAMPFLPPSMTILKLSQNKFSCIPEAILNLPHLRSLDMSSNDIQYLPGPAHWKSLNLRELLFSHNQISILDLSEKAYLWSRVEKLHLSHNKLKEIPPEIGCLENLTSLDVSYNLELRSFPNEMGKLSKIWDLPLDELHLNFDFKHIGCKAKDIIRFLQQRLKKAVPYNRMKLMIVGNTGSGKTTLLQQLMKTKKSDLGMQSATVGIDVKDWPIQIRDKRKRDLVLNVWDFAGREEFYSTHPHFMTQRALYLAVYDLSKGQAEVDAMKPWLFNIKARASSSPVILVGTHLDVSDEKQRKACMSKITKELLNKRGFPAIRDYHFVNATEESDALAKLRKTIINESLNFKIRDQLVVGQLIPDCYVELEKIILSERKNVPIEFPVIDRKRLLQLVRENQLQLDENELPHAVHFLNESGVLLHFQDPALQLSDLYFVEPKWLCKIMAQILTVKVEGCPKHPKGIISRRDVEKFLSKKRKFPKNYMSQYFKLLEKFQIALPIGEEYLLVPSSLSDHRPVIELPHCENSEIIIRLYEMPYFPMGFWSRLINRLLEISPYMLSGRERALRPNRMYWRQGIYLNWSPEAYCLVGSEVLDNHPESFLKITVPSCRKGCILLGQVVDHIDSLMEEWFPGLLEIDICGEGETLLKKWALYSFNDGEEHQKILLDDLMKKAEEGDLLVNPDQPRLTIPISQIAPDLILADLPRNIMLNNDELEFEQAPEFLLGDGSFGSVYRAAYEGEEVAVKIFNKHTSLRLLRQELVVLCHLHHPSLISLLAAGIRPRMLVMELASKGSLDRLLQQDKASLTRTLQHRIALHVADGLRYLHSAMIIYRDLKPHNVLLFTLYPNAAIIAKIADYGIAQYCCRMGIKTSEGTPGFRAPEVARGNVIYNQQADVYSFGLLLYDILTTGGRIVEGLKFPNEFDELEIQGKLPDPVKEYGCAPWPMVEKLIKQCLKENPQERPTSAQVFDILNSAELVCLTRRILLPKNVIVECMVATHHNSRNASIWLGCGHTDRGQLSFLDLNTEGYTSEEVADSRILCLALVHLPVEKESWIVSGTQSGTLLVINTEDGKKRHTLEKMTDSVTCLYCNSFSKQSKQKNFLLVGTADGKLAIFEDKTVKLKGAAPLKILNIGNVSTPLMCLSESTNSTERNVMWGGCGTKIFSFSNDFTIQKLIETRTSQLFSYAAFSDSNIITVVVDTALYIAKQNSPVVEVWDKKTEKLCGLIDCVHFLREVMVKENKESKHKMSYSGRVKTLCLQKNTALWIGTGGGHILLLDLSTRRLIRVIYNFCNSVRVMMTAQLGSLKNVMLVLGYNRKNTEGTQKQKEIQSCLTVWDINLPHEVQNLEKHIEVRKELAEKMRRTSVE

## CN(C(=O)CN1CCOCC1)c1ccc2sc3c(-c4cccc5c(=O)cc(N6CC7CCC(C6)O7)oc45)cccc3c2c1 [NU5455]
  inhibition at 1 µM: 1.7%
